In patent US20100113484A1, “TREATING AGENT OF UROPATHY” (ASKA PHARMACEUTICAL CO., LTD., priority 2006, published 2010):
Where two headings read alike, the source gives them in different places.

Columns and labels:
[1] = target: T1, human recombinant PDE5 protein (Homo sapiens, UniProt O76074); test: Measurement of PDE5-inhibiting activity; type: biochemical; details: Tables A and C; read-out: Inhibiting Activity (IC50 value) PDE5
T1 construct: made in house; host or cells: COS-1 cells, transient transfection with pcDNA 3.1 (+); supernatant of the homogenate, not purified
Protocol: PCR condition: [94° C., 2 min]×1 cycle, [(94° C., 30 sec), (65° C., 30 sec), (68° C., 3 min)]×25 cycles, [68° C., 6 min]×1 cycle
Thus obtained hsPDE5A1 fragment was given a restricted enzymatic treatment with XBaI and EcoRI, and thereafter inserted into pcDNA 3.1 (+) expression vector (Invitrogen) to let it serve as a human PDE5 expression vector.
Human PDE5 expression vector-transformed Escherichia coli was mass incubated to produce a large amount of human PDE5 expression vector, which was transiently transfected into COS-1 cells, with LIPOFECTAMINE 2000 Reagent (GIBCO). The cells were homogenized in ice-cooled buffer A and centrifuged at 4° C., 14,000×g for 10 minutes. The supernatant was isolated to provide human recombinant PDE5 protein solution.

[2] = target: T2, human recombinant PDE9 protein (Homo sapiens, UniProt O76083); test: Measurement of PDE9-inhibiting activity ([3H]-cGMP hydrolysis); type: biochemical
T2 construct: made in house; host or cells: COS-1 cells, transient transfection with pcDNA 3.1 (+); supernatant of the homogenate, not purified
Protocol: Based on the base sequence of hsPDE9A1 registered with GenBank database (accession No.: AF048837), hsPDE9A1 fragment was amplified by polymerase chain reaction under the following conditions, using the following sequence (Amasham Pharmacia Biotech) as the primer and Human Prostate […] cDNA library (CLONTECH) as the template DNA, with Pfu Turbo DNA polymerase ([…]):
PCR condition: [95° C., 5 min]×1 cycle, [(95° C., 1 min), (58° C., 2 min), (72° C., 3 min)]×25 cycles, [72° C., 10 min]×1 cycle
Thus obtained hsPDE9A1 fragment was given a restricted enzymatic treatment with NheI and NotI, and thereafter inserted into pcDNA 3.1 (+) expression vector (Invitrogen) to let it serve as a human PDE9 expression vector.
Human PDE9 expression vector-transformed Escherichia coli was mass incubated to produce a large amount of human PDE9 expression vector, which was transiently transfected into COS-1 cells, with LIPOFECTAMINE 2000 Reagent (GIBCO). The cells were homogenized in ice-cooled buffer A (40 mmol/L Tris-HCl, pH7.5, 15 mmol/L benzamidine, 15 mmol/L 2-mercaptoethanol, 1 μg/mL Pepstatin A, 1 μg/mL Leupeptin, 5 mmol/L EDTA) and centrifuged at 4° C., 14,000×g for 10 minutes. The supernatant was isolated to provide human recombinant PDE9 protein solution.
This mixed solution was incubated at 30° C. for 30 minutes and the enzymatic reaction of PDE9 was terminated by heating the system in boiling water for 90 seconds. Returning the system to room temperature, 50 μL of Snake venom (SIGMA: 1 mg/mL) was added, followed by 10 minutes' incubation at 30° C., to convert the [^3H]-5′-GMP produced in the previous reaction to [^3H]-guanosine. […] Thereafter [^3H]-guanosine was eluted with 3 mL of 3 mol/L aqueous ammonia and its radiation activity was measured with liquid scintillation counter.
PDE9 inhibition of the tested compound can be calculated by the following formula: […]
From the percent inhibition at various concentration levels of each tested compound, its IC50 value against PDE9 can be determined.

[3] = tested on: partial urethra obstruction model in guinea pigs; test: Dysuria pathological model: partial urethra obstruction model, cystometry; type: in vivo, Hartley female guinea pigs; details: guinea pig, i.v., 1 mg/kg
Protocol: Three-four weeks old Hartley female guinea pigs (Japan SLC, Inc.) were given celiotomy under anesthesia with pentobarbital (30 mg/kg i.p.) and in their urethra to the peripheral side by 1-2 mm from the bladder neck, each a polyethylene tube of 1.4 mm in width and 2.0 mm in inner diameter was placed. After closing the wound, the guinea pigs were bred for at least 3 weeks to produce partial urethra obstruction model in guinea pigs in which occurrence of intravesical pressure rise not accompanied by micturition (uninhibited contraction) and residual urine were observed.
The model was catheterized under anesthesia with urethane (1 g/kg i.p.) at the apex of urinary bladder and right jugular vein for cystometrography and intravenous administration, respectively. The other end of the bladder catheter was connected to a pressure transducer and infusion pump via a three way stop-cock, and physiological saline was continuously infused into the bladder through the infusion pump at a rate of 0.4 mL/min to induce micturition reflex. Immediately after the micturition reflex was induced, infusion of physiological saline into the bladder was stopped. The intravesical pressure at the time the micturition reflex was induced was measured with the pressure transducer, and the obtained cystometrogram was recorded with pen recorder. The urine voided was collected with disposable type weighing dish and its weight was measured. Further the physiological saline remained in the bladder was sucked with syringe via the bladder catheter and the residual urine volume was measured. The operations of suspending the infusion of physiological saline upon induction of micturition reflex, and about 1 minute thereafter resuming the infusion of physiological saline to induce micturition reflex were repeated plural times (generally 4 times) to stabilize the micturition reflex.
After stabilizing the micturition reflex, a compound solution (prepared by dissolving the compound or methanesulfonic acid salt thereof in DMSO and diluting it with physiological saline or distilled water) or physiological saline was administered into the vein at a volume of 10 mL/kg over 4 minutes, and simultaneously the above-described micturition reflex operations were repeated until 30 minutes passed after initiation of the administration, while measuring the intravesical pressure and the volumes of micturition and residual urine. Also the frequency of uninhibited contraction occurrence during the above-described operations was recorded.

[4] = Tables A and C, read-out: Inhibiting Activity (IC50 value) PDE9
[5] = Table B, read-out: Inhibiting Activity IC50 PDE9

T2 sequence (O76083 whole entry): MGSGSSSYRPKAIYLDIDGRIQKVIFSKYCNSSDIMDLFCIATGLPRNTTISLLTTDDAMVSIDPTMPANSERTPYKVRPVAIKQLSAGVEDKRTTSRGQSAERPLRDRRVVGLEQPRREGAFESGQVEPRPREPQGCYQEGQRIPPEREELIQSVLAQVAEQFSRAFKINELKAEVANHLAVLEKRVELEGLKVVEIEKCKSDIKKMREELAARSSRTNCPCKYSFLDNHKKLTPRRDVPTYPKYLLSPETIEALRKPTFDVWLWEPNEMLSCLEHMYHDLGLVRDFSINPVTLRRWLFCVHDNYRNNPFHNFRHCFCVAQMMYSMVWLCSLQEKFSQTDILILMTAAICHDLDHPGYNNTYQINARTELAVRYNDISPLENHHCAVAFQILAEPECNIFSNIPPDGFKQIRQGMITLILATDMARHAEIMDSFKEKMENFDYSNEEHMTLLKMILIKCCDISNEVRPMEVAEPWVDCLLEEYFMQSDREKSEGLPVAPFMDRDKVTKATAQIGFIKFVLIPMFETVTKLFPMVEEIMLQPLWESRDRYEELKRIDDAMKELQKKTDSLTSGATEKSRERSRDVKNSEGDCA

Row | Compound | IC50 [1] [nM] | IC50 [2, 4] [nM] | also measured
1 | 2-(3-Chloro-4-fluorobenzyl)-5-methyl-4-oxo-3,4-dihydrothieno-[2,3-d]pyrimidine-6-carboxylic acid [A-10] | 3420 | 38 | –
2 | 2-(5-Chlorothiophen-2-ylmethyl)-5-methyl-4-oxo-3,4-dihydrothieno[2,3-d]pyrimidine-6-carboxylic acid [A-3] | 6900 | 34 | –
3 | Cc1c(C(=O)O)sc2nc(Cc3ccsc3)[nH]c(=O)c12 [A-1, 5-Methyl-4-oxo-2-(thiophen-3-ylmethyl)-3,4-dihydrothieno[2,3-d]-pyrimidine-6-carboxylic acid] | 17800 | 22 | –
4 | Cc1c(C(=O)O)sc2nc(Cc3cccc(Br)c3)[nH]c(=O)c12 [A-5, 2-(3-Bromobenzyl)-5-methyl-4-oxo-3,4-dihydrothieno[2,3-d]-pyrimidine-6-carboxylic acid] | 4430 | 24 | –
5 | Cc1c(C(=O)O)sc2nc(Cc3cccc(C(F)(F)F)c3)[nH]c(=O)c12 [A-6, 5-Methyl-4-oxo-2-(3-trifluoromethylbenzyl)-3,4-dihydrothieno[2,3-d]pyrimidine-6-carboxylic acid] | 22200 | 34 | –
6 | Cc1c(C(=O)O)sc2nc(Cc3ccccc3SC(F)(F)F)[nH]c(=O)c12 [A-8, 5-Methyl-4-oxo-2-(2-trifluoromethylthiobenzyl)-3,4-dihydrothieno[2,3-d]pyrimidine-6-carboxylic acid] | 20000 | 46 | –
7 | Cc1c(C(=O)O)sc2nc(Cc3ccc(F)c(C(F)(F)F)c3)[nH]c(=O)c12 [A-9, 2-(4-Fluoro-3-trifluoromethylbenzyl)-5-methyl-4-oxo-3,4-dihydrothieno[2,3-d]pyrimidine-6-carboxylic acid] | 18900 | 44 | –
8 | Cc1c(C(=O)O)sc2nc(Cc3cc(Cl)ccc3F)[nH]c(=O)c12 [A-11, 2-(5-Chloro-2-fluorobenzyl)-5-methyl-4-oxo-3,4-dihydrothieno-[2,3-d]pyrimidine-6-carboxylic acid] | 5710 | 22 | –
9 | Cc1c(C(=O)O)sc2nc(Cc3cc(F)ccc3F)[nH]c(=O)c12 [A-12, 2-(2,5-Difluorobenzyl)-5-methyl-4-oxo-3,4-dihydrothieno-[2,3-d]pyrimidine-6-carboxylic acid] | 19800 | 42 | –
10 | Cc1c(C(=O)O)sc2nc(CC3=CCCC3)[nH]c(=O)c12 [A-13, 2-(Cyclopent-1-enylmethyl)-5-methyl-4-oxo-3,4-dihydrothieno-[2,3-d]pyrimidine-6-carboxylic acid] | 8590 | 28 | –
11 | Cc1c(C(=O)O)sc2nc(CC3=CCCCC3)[nH]c(=O)c12 [A-14, 2-(Cyclohex-1-enylmethyl)-5-methyl-4-oxo-3,4-dihydrothieno-[2,3-d]pyrimidine-6-carboxylic acid] | 1640 | 54 | –
12 | O=C(O)c1cc2c(=O)[nH]c(Cc3ccsc3)nc2s1 [A-15, 4-Oxo-2-(thiophen-3-ylmethyl)-3,4-dihydrothieno-[2,3-d]pyrimidine-6-carboxylic acid] | 34900 | 14 | –
13 | O=C(O)c1cc2c(=O)[nH]c(Cc3cccs3)nc2s1 [A-16, 4-Oxo-2-(thiophen-2-ylmethyl)-3,4-dihydrothieno[2,3-d]-pyrimidine-6-carboxylic acid] | 41200 | 15 | –
14 | O=C(O)c1cc2c(=O)[nH]c(Cc3ccccc3)nc2s1 [A-17, 2-Benzyl-4-oxo-3,4-dihydrothieno[2,3-d]pyrimidine-6-carboxylic acid] | 34400 | 19 | –
15 | O=C(O)c1cc2c(=O)[nH]c(Cc3cccc(Cl)c3)nc2s1 [A-18, 2-(3-Chlorobenzyl)-4-oxo-3,4-dihydrothieno[2,3-d]-pyrimidine-6-carboxylic acid] | 15800 | 10 | –
16 | O=C(O)c1cc2c(=O)[nH]c(Cc3cccc(C(F)(F)F)c3)nc2s1 [A-19, 4-Oxo-2-(3-trifluoromethylbenzyl)-3,4-dihydrothieno-[2,3-d]pyrimidine-6-carboxylic acid] | 30200 | 15 | –
17 | O=C(O)c1cc2c(=O)[nH]c(Cc3ccc(Cl)c(Cl)c3)nc2s1 [A-20, 2-(3,4-Dichlorobenzyl)-4-oxo-3,4-dihydrothieno[2,3-d]-pyrimidine-6-carboxylic acid] | 2280 | 9 | –
18 | Cc1c(C(=O)O)sc2nc(Cc3ccsc3)[nH]c(=S)c12 [A-22, 5-Methyl-2-(thiophen-3-ylmethyl)-4-thioxo-3,4-dihydrothieno-[2,3-d]pyrimidine-6-carboxylic acid] | 1640 | 9 | –
19 | Cc1c(C(=O)O)sc2nc(Cc3cccs3)[nH]c(=S)c12 [A-23, 5-Methyl-2-(thiophen-2-ylmethyl)-4-thioxo-3,4-dihydrothieno-[2,3-d]pyrimidine-6-carboxylic acid] | 1540 | 31 | –
20 | COc1ccc(Cc2nc3cc(C(=O)O)ccc3c(=O)[nH]2)cc1OC [B-3, 2-(3,4-Dimethoxybenzyl)-4-oxo-3,4-dihydroquinazoline-7-carboxylic acid] | – | – | Inhibiting Activity inhibition ratio at 1 μM PDE9 ([2]; Table B): inhibition ratio = 11%
21 | COc1ccccc1Cc1nc2cc(C(=O)O)ccc2c(=O)[nH]1 [B-4, 2-(2-Methoxybenzyl)-4-oxo-3,4-dihydroquinazoline-7-carboxylic acid] | – | – | IC50 [2, 5]: 1290 nM
22 | COc1cccc(Cc2nc3cc(C(=O)O)ccc3c(=O)[nH]2)c1 [B-5, 2-(3-Methoxybenzyl)-4-oxo-3,4-dihydroquinazoline-7-carboxylic acid] | – | – | Inhibiting Activity inhibition ratio at 1 μM PDE9 ([2]; Table B): inhibition ratio = 41%
23 | O=C(O)c1ccc2c(=O)[nH]c(Cc3ccccn3)nc2c1 [B-6, 4-Oxo-2-(2-pyridylmethyl)-3,4-dihydroquinazoline-7-carboxylic acid] | – | – | IC50 [2, 5]: 1290 nM
24 | O=C(O)c1ccc2c(=O)[nH]c(Cc3cccnc3)nc2c1 [B-7, 4-Oxo-2-(3-pyridylmethyl)-3,4-dihydroquinazoline-7-carboxylic acid] | – | – | Inhibiting Activity inhibition ratio at 1 μM PDE9 ([2]; Table B): inhibition ratio = 30%
25 | O=C(O)c1ccc2c(=O)[nH]c(Cc3cccs3)nc2c1 [B-8, 4-Oxo-2-(2-thienylmethyl)-3,4-dihydroquinazoline-7-carboxylic acid] | – | – | IC50 [2, 5]: 93 nM
26 | Cn1c(Cc2cccc(Cl)c2)nc2cc(C(=O)O)ccc2c1=O [B-9, 2-(3-Chlorobenzyl)-3-methyl-4-oxo-3,4-dihydroquinazoline-7-carboxylic acid] | – | – | IC50 [2, 5]: 4660 nM
27 | CC(C)c1ncc2c(=O)[nH]c3cc(Cl)ccc3n12 [C-1 (methanesulfonate)] | – | – | Frequency of occurrence of uninhibited contraction volume change [3]: +0.77 times/min; Residual urine volume volume change [3]: 0.22 mL
